Data reported in publication PMC11385693, “Synthesis of ferrocenyl benzimidazole derivatives as novel anti-Toxoplasma gondii agents” (New Journal of Chemistry, 2024).
“And” between values parts separate entries of the source, which are not always exact repeats. Equal entries are not always repeated. Where two headings read alike, the source gives them in different places.

Tests used:
Cyclic voltammetry = format: physicochemical
Source text: Ferrocene is known to undergo reversible oxidation and reduction, cycling between its 3^+ ferrocenium and the 2^+ ferrocene (Fc) states.[49,50] This redox behaviour leads to the generation of reactive oxygen species (ROS) through Fenton like reactions, which can in turn lead to parasite death.[51–53] Cyclic voltammetry was used to determine if the synthesised ferrocenyl derivatives had the potential to have an impact on the redox status of the parasite cells. Two different scan rates (25 and 90 mV s^−1) were used to ensure the reliability of the results, compared to ferrocene alone.

T. gondii parasites = assay: Determination of ROS formation by FACS (CellROX deep red); format: cell-based, Toxoplasma gondii; conditions: 66 μM, 18 hours, compared with untreated parasites
Experimental: Once it had been established that two of the synthesised ferrocenyl benzimidazole derivatives were biologically active, their potential mode of action was explored. Given the presence of the ferrocenyl moiety, and the cyclic voltammetry results, it was of interest to investigate whether the compounds induce ROS, which may provide an explanation for their anti-parasitic activity. Thus, cells heavily infected with parasites were incubated with target compounds for 18 hours, before isolating the parasites and staining them with CellRox deep red reagent. CellRox is an oxidation sensitive dye which is non-fluorescent in its reduced state but fluoresces bright red at 665 nm upon being oxidised by ROS. FACS was then used to quantify CellROX parasite florescence.[56] Parasites were incubated with ferrocene carboxylic acid (FcCOOH), and untreated parasites were used as controls.
6 cm dishes of host cells heavily infected with T. gondii were untreated or treated with 66 μM (second highest concentration used in growth inhibition assays) of test compounds for 18 hours. The dishes were then scratched and syringed, before filtering the solution into 10 mL falcon tubes to remove cell debris. The tubes were spun down for 10 minutes at 1500 rpm. The media was then removed from the tubes, and the pellet resuspended in 200 μL of PBS buffer. For each drug, 100 μL of the resuspended pellet was then placed into 2 FACS tubes, one which would then be stained with CellROX dye, and the other 100 μL of PBS added to act as an unstained control. A 1 : 125 dilution of CellROX stock solution was performed, and 100 μL of this solution added to the FACS tubes needing staining. Stained tubes were incubated at 37 °C for at least 15 min before analysis on a BD Celesta flow cytometer. Data was obtained using FACSDiva software with parasites being gated on forward scatter, side scatter and green fluorescence. FlowJo v10 software was used to plot the geometric mean of CellRox fluorescence from at least 5000 parasites on the Cy7 channel.

[1] = tested on: RhΔKu80:mNeonGreen strain of T. gondii; assay: microbe, parasite or virus in culture; format: cell-based, Toxoplasma gondii
Experimental: Growth inhibition assays were carried out using the RhΔKu80:mNeonGreen strain of T. gondii, which expresses the mNeonGreen fluorescent protein.[56] Parasite growth inhibition was determined by measuring the fluorescence emission of parasite growth in increasing concentrations of compounds of interest.
T. gondii ΔKu80:mNeon tachyzoites were grown in human foreskin fibroblasts (HFFs) with Dulbecco's modified Eagle's medium (DMEM) supplemented with 3% heat inactivated foetal bovine serum (D3) as the culturing medium. Cells and parasites were maintained at 37 °C and 5% carbon dioxide (CO2).
EC50s were calculated as previously described.[56] Briefly, T. gondii ΔKu80:mNeon parasites were counted by haemocytometer and diluted to 25 000 parasites per mL in 40 mL of D3 media, to give an infection of 5000 parasites per well. The media from a black clear bottomed 96 well plate containing HFFs was then aspirated. 200 μL of uninfected D3 media was added to the top and bottom rows of wells (A and H) to serve as blanks. 200 μL of T. gondii containing D3 media was then added to the remaining wells. The parasites were allowed 2 hours to invade host cells, after which test compounds were added.
The media from the infected 96 well plates was then aspirated and 100 μL of D3 media added to each well, excluding column 12. The first 4 wells of column 12 were filled with 300 μL of drug supplemented D3 media, while the next 4 wells were filled with 300 μL of D3 media supplemented with a different drug. The drug supplemented D3 media was then serially diluted 1 : 3 across the plate, stopping at column 2 and disposing of the media, leaving all wells with 100 μL of media. Finally, the plates were closed and incubated at 37 °C with 5% CO2 for 4 days. After 4 days the fluorescence of each well on the plates was read at 594 nm emission using a PHERAstar FS microplate reader. Graphpad Prism 9 software was used to plot dose–response and determine inhibition of parasite growth.

[2] = Turbidimetric solubility assay; conditions: for solubility at 2 h: kinetic from dmso stock
Experimental: A single phosphate buffered saline (PBS) tablet (Sigma Aldrich) was dissolved in 200 mL of distilled water (dH2O) (25 °C) to obtain a PBS solution with 0.01 M phosphate buffer, 0.14 M NaCl and 0.003 M KCl.
Stock solutions of the compounds to be tested were prepared in DMSO at a concentration of 10 mM and filtered through syringe filters. Serial dilution of the stock solutions with DMSO was then carried out in a preparatory (prep) 96-well plate giving concentrations between 0.00 and 10.0 mM (0.00, 0.25, 0.50, 1.0, 2.0, 4.0, 8.0 and 10 mM). The solutions were then further diluted into 96-well assay plates containing DMSO, PBS or HEPES buffer by pipetting 4.00 μL of solution from the prep plate to the Assay plate containing 196 μL of DMSO or buffer, giving final concentrations between 0.00 and 200 μM (0.00, 5.00, 10.0, 20.0, 40.0, 80.0, 160 and 200 μM). The assay plates were incubated at 25.0 or 37.0 °C for two hours before their UV-vis absorbance was read at 620 nm with a SPECTROstar Nano microplate reader spectrophotometer. Blank readings were used to gain corrected readings by subtracting them from obtained absorbances for each compound concentration.

[3] = Aqueous stability studies (UV-vis monitoring, ESI-MS follow-up); format: physicochemical; conditions: for Change of UV-vis spectrum over time (aqueous stability): PBS pH 7.4, HEPES pH 7.0 and acetate buffer pH 4.6, 37 °C, 18 hours, 50 μM
Experimental: The stability of complexes 14–17 in an aqueous environment was investigated. The stability experiments were performed in PBS (pH 7.4) and HEPES (pH 7.0) buffers, as well as in acidic acetate buffer (pH 4.6), by monitoring the UV-vis spectra of the compounds at 37 °C over an 18-hour period.
To further investigate the stability of 14, the PBS, HEPES and acetate buffer solutions were evaporated to dryness, and then analysed using electrospray ionisation mass spectrometry in the positive ionisation mode.
PBS and HEPES buffers were prepared as described above. An acetate buffer with a concentration of […] and a pH of 4.60 was prepared by dissolving 5.40 g (65.83 mmol) of sodium acetate in 50 mL of dH2O. The resulting solution was then titrated to a pH of 4.60 with glacial acetic acid and made up to 100 mL with dH2O.
1 mM stock solutions of the synthesised target compounds in MeOH were prepared. 1.90 mL of buffer (PBS, HEPES or acetate buffer) was pipetted into cuvettes followed by the addition 100 μL of test compound stock solutions, diluting them to a final concentration of 50 μM. The cuvettes were then stoppered, inverted to mix the solution, and placed in an Agilent Cary 3500 UV-vis spectrophotometer as fast as possible. Blank solutions in matched cuvettes were also prepared by adding 100 μL of MeOH to 1.9 mL of buffer. The solutions in all the cuvettes were stirred at 400 rpm ensure proper mixing. UV spectra were then recoded every 5 minutes for 18 hours with a spectral width of 200–1100 nm to monitor the stability of the test compounds.

HEK293T cell line = conditions: 25 μM, MTT 48 hours
Experimental: Human prostatic epithelial cells (PNT1A) were cultured in Rosewell Park Memorial Institute (RPMI) media supplemented with 10% heat inactivated FBS. Both cell lines were incubated at 37 °C with 5% CO2. Both cell lines were obtained from ATCC.
The cells were allowed to recover overnight before the addition of compounds.
Stock solutions of the test compounds in DMSO were prepared and serially diluted in DMSO in a 96 well plate. […] 10 μL of the test compounds in media was then pipetted into the plates containing cells in triplicate. The cells were then incubated with the test compounds for 48 hours. After incubation, 10 μL of previously prepared MTT reagent was added to each well followed by incubation of the plates for 4 hours. 100 μL of solubilising agent was then pipetted into each well, and the plates incubated overnight. After overnight incubation the plates were read using a BioTek SYNERGY HTX multimode plate reader at 595 nm. Graphpad Prism 9 software was used to plot dose–response and determine cell viability.

[4] = T. gondii ΔKu80:mNeon in HFFs, 4 days, highest concentration 100 μM, NA = not active at the maximum tested concentration, three biological replicates in triplicate
[5] = T. gondii ΔKu80:mNeon in HFFs, 4 days, highest concentration 100 μM, NA = not active at the maximum tested concentration, three biological replicates in triplicate, read-out: EC50

SMILES | E 1/2 (Cyclic voltammetry; Run1, scan rate 25 mV s^−1) | ΔEp (Cyclic voltammetry; Run1, scan rate 25 mV s^−1) | E 1/2 (Cyclic voltammetry; Run2, scan rate 90 mV s^−1) | ΔEp (Cyclic voltammetry; Run2, scan rate 90 mV s^−1) | ROS formation in treated parasites (CellRox red fluorescence) (T. gondii parasites) | Solubility range ([2]; HEPES (pH 7.0), 25 °C) | Solubility class ([2]; HEPES (pH 7.0), 37 °C) | Solubility range ([2]; HEPES (pH 7.0), 37 °C) | Solubility range ([2]; PBS (pH7.4), 25 °C) | Solubility range ([2]; PBS (pH7.4), 37 °C) | Change of UV-vis spectrum over time (aqueous stability) [3] | further results
[Fe+2].c1cc[cH-]c1.c1cc[cH-]c1 [Fc, ferrocene, reference compound] | 451 mV | 108 mV | 453 mV | 83 mV |  |  |  |  |  |  |  | 
O=C(O)[c-]1cccc1.[Fe+2].c1cc[cH-]c1 [FcCOOH, ferrocene carboxylic acid, reference compound] | 688 mV | 89 mV | 689 mV | 71 mV | only showed slightly more ROS present than untreated parasites |  |  |  |  |  |  | EC50 [1, 4]: no activity
CCc1nc(N)nc(N)c1-c1ccc(Cl)cc1 [Pyrimethamine] |  |  |  |  |  |  |  |  |  |  |  | EC50 [1, 5]: 13.8 µM; EC50 ([1]; Toxoplasma gondii, 96 h, T. gondii ΔKu80:mNeon in HFFs, 4 days, highest concentration 100 μM, NA = not active at the maximum tested concentration, three biological replicates in triplicate, read-out: EC50): 13.8 µM
O=C(Cl)[c-]1cccc1.[Fe+2].c1cc[cH-]c1 [FcCOCl] |  |  |  |  |  |  |  |  |  |  |  | EC50 [1, 4]: no activity
COC(=O)[C@H]1[C@H]2C[C@@H]3c4[nH]c5cc(OC)ccc5c4CCN3C[C@H]2C[C@@H](OC(=O)c2cc(OC)c(OC)c(OC)c2)[C@@H]1OC [Reserpine, reference compound] |  |  |  |  |  |  |  |  |  |  |  | solubility at 2 h ([2]; HEPES buffer, 25 °C, pH 7, aqueous buffer): < 5 µM and < 3 µg/mL; solubility at 2 h ([2]; HEPES buffer, 37 °C, pH 7, aqueous buffer): < 5 µM and < 3 µg/mL; solubility at 2 h ([2]; PBS buffer, 25 °C, pH 7.4, aqueous buffer): < 5 µM and < 3 µg/mL; solubility at 2 h ([2]; PBS buffer, 37 °C, pH 7.4, aqueous buffer): < 5 µM and < 3 µg/mL
Nc1ccc(S(=O)(=O)Nc2ncccn2)cc1 [Sulfadiazine] |  |  |  |  |  |  |  |  |  |  |  | EC50 ([1]; Toxoplasma gondii, 96 h): 2.56 µM
O=C(NCCn1c(-c2ccccc2)nc2ccccc21)[c-]1cccc1.[Fe+2].c1cc[cH-]c1 [Compound 14] | 638 mV | 89 mV | 641 mV | 75 mV |  | 20-40 µM and 9-18 µg/mL | poor (solubility <10 μg mL^−1 are considered to have poor solubility) | 5-10 µM and 2–4 µg/mL | 10-20 µM and 4-9 µg/mL | 10-20 µM and 4-9 µg/mL | showed reduced intensity over time | Stability in buffer by ESI-MS of evaporated buffer solutions ([3]; PBS, HEPES and acetate buffer, molecular ion peak present): remained intact and was stable
O=C(NCCn1cnc2ccccc21)[c-]1cccc1.[Fe+2].c1cc[cH-]c1 [Compound 15] | 653 mV | 105 mV | 643 mV | 78 mV | triggered the formation of ROS | 10-20 µM and 4-7 µg/mL | moderate (a solubility of 10–60 μg mL^−1 is considered moderate) | 20-40 µM and 7–15 µg/mL | 10-20 µM and 4-7 µg/mL | 10-20 µM and 4-7 µg/mL | remained unchanged | Cell survival / % cell viability (HEK293T cell line): 50%; EC50 [1, 5]: 17.9 µM
O=C(NCCn1cnc2ncccc21)[c-]1cccc1.[Fe+2].c1cc[cH-]c1 [Compound 16] | 632 mV | 99 mV | 642 mV | 69 mV | not | 20-40 µM and 7-15 µg/mL | poor (solubility <10 μg mL^−1 are considered to have poor solubility) | 10-20 µM and 4–7 µg/mL | 10-20 µM and 4-7 µg/mL | 10-20 µM and 4-7 µg/mL | remained unchanged | 
